In patent US20060199772A1, “Use of a proteasome inhibitor in the treatment of endothelial dysfunction and/or in a low-dose proteasome inhibitor therapy” (Charite'-Universitaetsmedizin Berlin, priority 2002, published 2006):
Entries after “also recorded” stand apart in the source; their conditions may differ. Where a SMILES comes first, the peptide text is derived from it. The star is where a group is joined. Cbz = O=C(OCc1ccccc1)*

Assays:
eNOS mRNA [1] = test: eNOS mRNA levels by real-time RT-PCR in CPAE cells; format: cell-based, bovine
Method: (§1) The bovine pulmonary artery endothelial cell line (CPAE cells) was purchased from the American Type Culture Collection (ATCC, # CCL-209) and was cultured in MEM supplemented with 5% FCS, 1.5 g/L sodium bicarbonate, 0.11 g/L sodium pyruvate, 100 U/mL penicillin, and 100 μg/ml streptomycin. Human umbilical vein endothelial cells (HUVECs) were isolated and cultured as described previously (Stangl et al. Homocysteine inhibits TNF-α-induced endothelial adhesion molecule expression and monocyte adhesion via nuclear factor-κB dependent pathwas. Biochem Biophys Commun. 2001; 280:1093-1100). Purity of HU-VECs was assessed by von Willebrand factor staining. For experiments, cells were seeded onto […] dishes and were treated with either proteasome inhibitors MG132, MG262, with the non-proteasomal cathepsin inhibitor ALLM, or with solvent (DMSO) for the times and concentrations indicated. In some experiments, the transcription inhibitor α-amanitin (2.5 μg/mL) was pre-incubated one hour before addition of proteasome inhibitor. Cell viability was assessed by trypan blue exclusion. For HUVECs, the inventors used only second- to third-passage cells for all experiments. For phalloidin-DAPI double staining, cells were fixed with 4% paraformaldehyde, permeabilized with 1% Triton, and blocked with 1% FCS. The inventors took cell photos with a Zeiss camera and analysed them with Axiovert 3.0 software.
After treatment, cells were lysed in Trizol reagent (Gibco Life Technologies, Karlsruhe, Germany) and 800 ng of total RNA were reversed transcribed with random hexamers. Primer sequences were synthesized by TIB Molbiol (Berlin, Germany), and TaqMan probes by Eurogentec (Seraing, Belgium). Table 1 summarizes the sequences of primers and probes used in this study. mRNA expression was standardized to the HPRT (hypoxanthine phosphoribosyl transferase) gene as a housekeeping gene, the transcription level of which were not influenced under our experimental conditions. PCR amplification was carried out in 25 μL TaqMan Universal PCR Master Mix (Perkin Elmer Applied Biosystems, Foster City, Calif.) containing either 0.3 or 0.9/μmol/L primer, 0.2/μmol/L TaqMan probe, and 1 μl of the reverse transcription reaction in a 5700 Sequence Detection System (Perkin Elmer Applied Biosystems). Thermal cycling conditions comprised an initial denaturation step at 95° C. for 10 minutes, followed by 95° C. for 15 seconds and 60° C. for 1 minute for 40 cycles. Size and purity of the amplification products were verified on a 20% PAA gel. The CT (threshold cycle) is defined as the number of cycles required for the fluorescence signal to exceed the detection threshold. The expression of the target gene relative to the housekeeping gene was calculated as the difference between the threshold values for the two genes.
The SYBR Green method was applied for quantitative amplification of bovine eNOS mRNA. In our analysis with the transcription inhibitor α-amanitin—which blocks RNA polymerase II, whereas RNA polymerase I is insensitive to this toxin (Lindell T J et al. Specific inhibition of nuclear RNA polymerase II by alpha-amanitin. Science. 1970; 170: 447-449)—the inventors standardized eNOS mRNA expression to RP29 (ribosomal protein 29) gene as housekeeping gene. Thermal cycling conditions were identical to the TaqMan PCR.

eNOS [2] = test: eNOS protein expression by Western blot in CPAE cells; format: cell-based, bovine; conditions: for upregulation of eNOS protein (specificity comparison with MG132): equipotent doses
Method: as §1
(§2) After treatment, cells were washed twice with PBS and lysed in extraction buffer containing in mmol/L: Tris/HCl 50 (pH 7.4), KCl 154, glucose 5, EDTA 0.5, PMSF 1, DTT 2, and 1% Triton X-100. Total protein (50 μg per lane) was subjected to SDS-PAGE and membranes were probed with anti-eNOS monoclonal antibody (1:2500) or with anti-ubiquitin antibody (1:1000). Membranes were incubated with secondary anti-mouse antibody (1:2500) conjugated to alkaline phosphatase for eNOS or with anti-rabbit antibody conjugated to horseradish peroxidase (1:10000) for ubiquitin. Bands were visualized by using BCIP and Nitro Blue Tetrazolium (Sigma) for eNOS, and by employing the ECL detection system (Amersham) for ubiquitin.

proteasome = test: Accumulation of poly-ubiquitinylated proteins (anti-ubiquitin Western blot) in CPAE cells; format: cell-based, bovine
Method: as §1, §2

eNOS mRNA [3] = test: eNOS mRNA levels by real-time RT-PCR in HUVECs, with or without TNF-α; format: cell-based, human; conditions: 48 hours
Method: Purity of HU-VECs was assessed by von Willebrand factor staining. For experiments, cells were seeded onto 6-mm diameter dishes and were treated with either proteasome inhibitors MG132, MG262, with the non-proteasomal cathepsin inhibitor ALLM, or with solvent (DMSO) for the times and concentrations indicated. In some experiments, the transcription inhibitor α-amanitin (2.5 μg/mL) was pre-incubated one hour before addition of proteasome inhibitor. Cell viability was assessed by trypan blue exclusion. For HUVECs, the inventors used only second- to third-passage cells for all experiments.
For eNOS expression in HUVECs, cells were treated with DMSO (control), TNF-α (1, 2.5 and 5 ng/ml) and TNF-α (same concentrations) in the presence of 70 nM MG132, for 48 hours, whereupon eNOS mRNA levels were measured (see Method 3).
After treatment, cells were lysed in Trizol reagent (Gibco Life Technologies, Karlsruhe, Germany) and 800 ng of total RNA were reversed transcribed with random hexamers. Primer sequences were synthesized by TIB Molbiol (Berlin, Germany), and TaqMan probes by Eurogentec (Seraing, Belgium). […] The CT (threshold cycle) is defined as the number of cycles required for the fluorescence signal to exceed the detection threshold. The expression of the target gene relative to the housekeeping gene was calculated as the difference between the threshold values for the two genes.

eNOS [4] = test: eNOS protein expression by Western blot in HUVECs; format: cell-based, human
Method: as §1, with “For phalloidin-DAPI double staining, cells were fixed with 4% paraformaldehyde, permeabilized with 1% Triton, and blocked with 1% FCS.” left out, “software. […]” for “software.”

[5] = test system: cultured neonatal rat cardiomyocytes; conditions: cited from earlier work
cardiomyocytes = conditions: cited from earlier work
CPAE cells = test: Cell viability by trypan blue exclusion; format: cell-based, bovine
Method: as §1, with “For phalloidin-DAPI double staining, cells were fixed with 4% paraformaldehyde, permeabilized with 1% Triton, and blocked with 1% FCS.” left out

rat aortic rings = test: Vasorelaxation studies in pretreated rat aortic rings (organ chamber); format: cell-based; conditions: 48 hours
Method: Thoracic aortas from male Wistar rats were rapidly excised, cleaned of connective tissue, and cut into rings 2 to 3 mm in length for organ-chamber experiments. Rings were incubated with MG132 100 nmol/L, 250 nmol/L, or solvent, or TNF-α (250 pg/ml) in the presence and absence of 250 nM MG132, for 48 hours in MEM at 37° C. containing 50 U/mL penicillin, 50 μg/mL streptomycin, 0.1% BSA, and 1 μg/mL polymyxin B. The rings were then mounted on platinum hooks in 10 ml jacketed organ baths containing modified Krebs-Henseleit solution (composition in mmol/L: NaCl 144, KCl 5.9, CaCli 1.6, MgSO^4− 1.2, KH2PO4^− 1.2, NaHCO3^− 25, and D-glucose 11.1) and diclofenac 1 μmol/L. Tension was gradually adjusted to 2 g over 1 hour. The solution in the bath was kept at 37° C. with a gas mixture of […]. Following equilibration and submaximal precontraction with phenylephrine (0.05 μmol/L), relaxation to increasing concentrations (1 nmol/L to 1 μmol/L) of the endothelium-dependent vasodilator acetylcholine was performed to obtain cumulative concentration-response curves. Selected studies were conducted in rings treated with L-NAME (1 mmol/L) before phenylephrine exposure. Maintenance of smooth-muscle integrity following incubation with the proteasome inhibitor or solvent was confirmed by evaluation of endothelium-independent vasodilation to papaverine (1 nmol/L to 1 μmol/L).

eNOS [6] = test: eNOS activity, L-[3H]arginine to L-[3H]citrulline conversion in extracts of treated CPAE cells; format: cell-based, bovine
Method: eNOS activity was assessed by the formation of L-[^3H]citrulline from L-[^3H]arginine after separation of the amino acids by cation exchange chromatography. Endothelial cells were washed with PBS and lysed in the same extraction buffer as for Western blot analysis. The inventors added 50 μg of total protein to the reaction mixture containing 50 mmol/L Hepes pH 7.4, 0.1% Triton X-100, 1 mmol/L EDTA, 1.25 mmol/L CaCl2, 1 mmol/L DTT, 1 μmol/L FAD, 15 μmol/L BH4, 1 mmol/L NADPH, and 1 μCi L-[^3H]arginine. Incubation was performed for 30 minutes at 37° C. Reactions were terminated by adding 0.5 ml of ice-cold Dowex (Na^+ form). L-[^3H]citrulline was separated from L-[^3H]arginine by Dowex chromatography, and L-[^3H]citrulline formation was quantified by liquid scintillation counting. The inventors subtracted the values obtained from samples incubated without cell extracts. […] In some samples, CaCl2 was omitted from the reaction buffer to exclude any contribution of inducible NO synthase (iNOS).

[7] = rat aortic rings pretreated 100 and 250 nmol/L

CC[C@H](C)[C@@H]1NC(=O)CNC(=O)[C@@H]2Cc3c([nH]c4cc(O)ccc34)[S+]([O-])C[C@@H](NC(=O)CNC1=O)C(=O)N[C@@H](CC(N)=O)C(=O)N1C[C@H](O)C[C@H]1C(=O)N[C@@H]([C@@H](C)[C@@H](O)CO)C(=O)N2 (stereo in doubt) [α-amanitin]
effect on overall eNOS mRNA levels (eNOS mRNA [1]; 2.5 μg/mL, pre-incubated 1 hour): reduced overall eNOS mRNA levels

CSCC[C@@H](C=O)NC(=O)[C@H](CC(C)C)NC(=O)[C@H](CC(C)C)NC(C)=O [ALLM, N-acetyl-leucyl-leucyl-methioninal] (Ac-Leu-Leu-Met-aldehyde)
upregulation of eNOS protein (specificity comparison with MG132) (eNOS [2]): had no effect; also recorded: failed to upregulate eNOS
proteasome inhibition (poly-ubiquitinylated proteins), comparison with MG132 (proteasome; corresponding doses): failed to inhibit the proteasome

CC(C)C[C@@H](C=O)NC(=O)[C@H](CC(C)C)NC(=O)[C@H](CC(C)C)NC(=O)OCc1ccccc1 [MG132, N-carbobenzoxy-L-leucinyl-L-leucinyl-L-leucinal] (Cbz-Leu-Leu-Leu-aldehyde)
eNOS mRNA expression in presence of TNF-α versus TNF-α alone (eNOS mRNA [3]; HUVECs, 70 nM with TNF-α 1, 2.5, 5 ng/ml): substantially increased expression of eNOS mRNA
time at which upregulation of eNOS mRNA begins (eNOS mRNA [1]): 16 h
time at which eNOS mRNA is still elevated after a single dose (eNOS mRNA [1]; 100 nmol/L single dose): 7 days
maximum eNOS mRNA level, times the control level (eNOS mRNA [1]; 100 nmol/L, 24 hours): 6.5 times the control level
MG132-induced increase in eNOS mRNA after α-amanitin pretreatment (eNOS mRNA [1]; α-amanitin pretreatment 1 hour): without eliminating the increase in mRNA levels induced by MG132
eNOS protein expression in HUVECs (eNOS [4]): dose-dependent increase in eNOS
spontaneous beating time of cardiomyocytes at 46° C. ([5]; 1 μM, control hyperthermia 5+/−2 min): 28 ± 5 min
induction of heat shock proteins at mRNA and protein levels [5]: time- and concentration-dependently induced Hsp72 and Hsp32
protective effects at concentrations of less than 1 μM (cardiomyocytes): did not exhibit protective effects
effect on eNOS expression at 20 nmol/L (eNOS [2]; 20 nmol/L): did not affect eNOS expression
time from which eNOS upregulation is significant (eNOS [2]; 50 nmol/L): 24 h
duration of enhanced eNOS protein after a single dose (eNOS [2]; 100 nmol/L single dose): up to 10 days
effect on eNOS protein levels at higher concentrations (eNOS [2]; 500 nmol/L and above): decreased eNOS protein levels
effect on eNOS protein levels at low concentrations (eNOS [2]; 50 to 250 nmol/L): gradually increased eNOS protein levels
time at which the rise of eNOS protein expression began (eNOS [2]; incubation with single dose): 16 h
eNOS protein expression versus control (eNOS [2]; single dose 100 nmol/L, 48 hours): 2.4 fold
toxic doses by trypan blue exclusion (CPAE cells): higher than 250 nmol/L
maximum relaxation to acetylcholine, percentage of phenylephrine precontraction (rat aortic rings; rat aortic rings pretreated 250 nmol/L): 89.4±5.7%
endothelial-independent vasorelaxation in response to papaverine (rat aortic rings; [7]): remained unaffected
endothelium-dependent relaxation to acetylcholine (rat aortic rings; [7]): significantly enhanced
vasoreactivity to acetylcholine of TNF-α-damaged aortic rings (rat aortic rings; rat aortic rings, 250 nM with TNF-α 250 pg/ml): vasoreactivity can be significantly improved
concentration from which poly-ubiquitinylated proteins accumulate (proteasome): ≥ 50 nmol/L
proteasome inhibition at 20 nmol/L (proteasome; 20 nmol/L): had no proteasomal inhibitory influence
time for which poly-ubiquitinylated proteins are detectable after a single dose (proteasome; 100 nmol/L single dose): three
accumulation of poly-ubiquitinylated proteins (proteasome; 50 to 250 nmol/L): led to accumulation of poly-ubiquitinylated proteins
time at which the increase in eNOS activity begins (eNOS [6]): 24 h
duration of enhanced eNOS enzyme activity after a single dose (eNOS [6]; 100 nmol/L single dose): up to 10 days

CC(C)C[C@H](NC(=O)[C@H](CC(C)C)NC(=O)[C@H](CC(C)C)NC(=O)OCc1ccccc1)B(O)O [MG262]
upregulation of eNOS protein (specificity comparison with MG132) (eNOS [2]): also upregulates eNOS; also recorded: Comparable results; also recorded: induced upregulation of eNOS protein to an extent similar to that caused by MG132

TNF-α
eNOS mRNA expression versus DMSO control (eNOS mRNA [3]; HUVECs, 1, 2.5 and 5 ng/ml): reduction and almost abolition of mRNA expression
acetylcholine-dependent vasodilatation versus DMSO control (rat aortic rings; rat aortic rings, 250 pg/ml): significantly reduced
